The values that follow are results of earlier work, collected in US20160144033A1, “CONCENTRATED ACETAMINOPHEN SOLUTION” (Emphascience, Inc., priority 2014, published 2016).

For the series the following is noted: room temperature.

Regarding `CC(=O)Nc1ccc(O)cc1` [acetaminophen], the “solubility of acetaminophen in water” value is listed as “ca. 13 mg per ml”.
